Laboratory results published in ChEMBL document CHEMBL1649358, “Induced production of bromomethylchlamydosporols A and B from the marine-derived fungus Fusarium tricinctum” (2010).
Values after ≈ are worked out from the molar mass of the structure shown.

Tests used:
Format in all cases: functional
Staphylococcus aureus [1] = assay: Antibacterial activity against Staphylococcus aureus ATCC 29213 after 18 hrs by broth dilution method; details: ATCC 29213, 18 h
Staphylococcus aureus [2] = assay: Antibacterial activity against methicillin-resistant Staphylococcus aureus CCARM 3167 after 18 hrs by broth dilution method; details: CCARM 3167, 18 h
Staphylococcus aureus [3] = assay: Antibacterial activity against multidrug-resistant Staphylococcus aureus CCARM 3089 after 18 hrs by broth dilution method; details: CCARM 3089, 18 h

## COc1cc(=O)oc2c1COC(C)(O)[C@H]2C (mixture of isomers) [CHLAMYDOSPOROL]
Staphylococcus aureus [1]
  MIC: 31.5 µg/mL
Staphylococcus aureus [2]
  MIC: 31.5 µg/mL
Staphylococcus aureus [3]
  MIC: 62.5 µg/mL

## COc1cc(=O)oc2c1CO[C@@](C)(OC)[C@@]2(C)Br [BROMOMETHYLCHLAMYDOSPOROL A]
Staphylococcus aureus [1]
  MIC: 15.6 µg/mL (≈ 48.9 µM)
Staphylococcus aureus [2]
  MIC: 15.6 µg/mL (≈ 48.9 µM)
Staphylococcus aureus [3]
  MIC: 15.6 µg/mL (≈ 48.9 µM)

## COc1c2c(oc(=O)c1Br)C(C)(Br)[C@](C)(OC)OC2 (some centres not stated) [BROMOMETHYLCHLAMYDOSPOROL B]
Staphylococcus aureus [1]
  MIC: 15.6 µg/mL (≈ 39.2 µM)
Staphylococcus aureus [2]
  MIC: 15.6 µg/mL (≈ 39.2 µM)
Staphylococcus aureus [3]
  MIC: 15.6 µg/mL (≈ 39.2 µM)

## C/C=C(\C)[C@H]1[C@@H](/C=C/C=C(\C)[C@@H](O)[C@@H](C)CO)[C@@H]2C[C@@H]3O[C@]3(C)C[C@H]2[C@@H]2O[C@@]21C [FUSARIELIN A]
Staphylococcus aureus [1]
  MIC: 31.5 µg/mL (≈ 78.2 µM)
Staphylococcus aureus [2]
  MIC: 31.5 µg/mL (≈ 78.2 µM)
Staphylococcus aureus [3]
  MIC: 62.5 µg/mL (≈ 155 µM)
